Experimental findings from US5760013A, “Thymidylate analogs and the use thereof” (National Science Council, priority 1996, dated 1998) are described below.

Molecules are shown by their SMILES. Converted amounts (≈) assume the structure as drawn. Like-named read-outs stand apart in the source and are kept apart here.

The subject of one data set is HIV-1(III B). The experiment in a line: Inhibition of cytopathogenicity of HIV-1(IIIB) in MT4 cells, cell-protection assay. The data set is classed as cell-based, human immunodeficiency virus type 1 (HIV-1).
Another data set relates to MT4 cell. Briefly: Cellular toxicity in uninfected MT4 cells. The data set is classed as cell-based. The conditions noted are these: Homo sapiens. On the procedure: Toxicity of these compounds was evaluated by their ability to cause morphological changes in cells at different concentrations.
^a Inhibitory concentrations (IC50) represent the average of
triplicate determinations;
^b Concentration of the compound required to reduce the number of
viable uninfected cells by 50%; and […]

A short description of data set [1]: Determination of solubility in phosphate buffer (UV absorbance). The data set is classed as physicochemical. The conditions noted are these: for water solubility, in words: compared with AZT.
Procedure: Determination of Solubility. Each compound (70 mg) listed in Table 1 was agitated in a 25-mL volumetric flask with phosphate buffer (0.10M, 5.0 mL) for 20 h.
Setting [2] is: Human immunodeficiency virus 1, cytopathogenicity in MT4 cells, average of triplicate determinations, read-out: IC50 HIV-1(III B).
The mark [3] stands for this setting: uninfected MT4 cells, average of triplicate determinations, read-out: IC50 MT4 cell (concentration required to reduce the number of viable uninfected cells by 50%).
[4] abbreviates: phosphate buffer (0.10M), agitated 20 h.

Consider `Cc1cn([C@H]2C[C@H](C#N)[C@@H](CP(=O)(O)O)O2)c(=O)[nH]c1=O` [IV, 3'-Cyano-3',5'-dideoxythymidine-5'-phosphonic acid], for which the IC50 in the data set with HIV-1(III B) (setting [2]) was over 128 µg/mL; in the data set with MT4 cell (setting [3]), 69.9 µg/mL (≈ 222 µM).
For the compound `Cc1cn([C@H]2C[C@H](N=[N+]=[N-])[C@@H](CP(=O)(O)O[C@H]3C[C@H](n4cc(C)c(=O)[nH]c4=O)O[C@@H]3CO)O2)c(=O)[nH]c1=O` [VIII, (2R,4S,5R)-1-[4-Azidotetrahydro-5-[(3'-O-thymidinyl-phosphinico)methyl]-2-furyl]thymine], the IC50 in the data set on HIV-1(III B) (setting [2]) is 1.92 µg/mL (≈ 3.46 µM); in the data set with MT4 cell (setting [3]), 99.5 µg/mL (≈ 179 µM). In data set [1] (setting [4]), the “solubility in H2 O” value was determined as 3240 µg/mL (≈ 5830 µM).
Taken in the same sequence, the figures for `COC(=O)[C@H](C)NP(=O)(C[C@H]1O[C@@H](n2cc(C)c(=O)[nH]c2=O)C[C@@H]1N=[N+]=[N-])O[C@H]1C[C@H](n2cc(C)c(=O)[nH]c2=O)O[C@@H]1CO` (stereo partly drawn) [Compound X, (2R,4S,5R)-1-[4-Azidotetrahydro-5-[[(3'-O-thymidinyl)(methoxy-L-alaninyl)-phosphinylidene]methyl]-2-furyl]thymine] were 0.61 µg/mL (≈ 0.952 µM), 200 µg/mL (≈ 312 µM) and 9130 µg/mL (≈ 14300 µM).
Taken in the same sequence, the figures for `COC(=O)[C@@H](C)NP(=O)(C[C@H]1O[C@@H](n2cc(C)c(=O)[nH]c2=O)C[C@@H]1F)O[C@H]1C[C@H](n2cc(C)c(=O)[nH]c2=O)O[C@@H]1CO` (stereo partly drawn) [Compound XI, (2R,4S,5R)-1-[4-Fluorotetrahydro-5-[[(3'-O-thymidinyl)(methoxy-D-alaninyl)-phosphinylidene]methyl]-2-furyl]thymine] were 0.5 µg/mL (≈ 0.81 µM), 462 µg/mL (≈ 748 µM) and 8920 µg/mL (≈ 14400 µM).
Taken in the same sequence, the figures for `Cc1cn([C@H]2C[C@H](OP(=O)(O)C[C@H]3O[C@@H](n4cc(C)c(=O)[nH]c4=O)C[C@@H]3F)[C@@H](CO)O2)c(=O)[nH]c1=O` [Compound VII, (2R,4S,5R)-1-[4-Fluorotetrahydro-5-[(3'-O-thymidinyl-phosphinico)methyl]-2-furyl]thymine] were 3.04 µg/mL (≈ 5.71 µM), 79 µg/mL (≈ 148 µM) and 3980 µg/mL (≈ 7480 µM).
Take `Cc1cn([C@H]2C[C@H](F)[C@@H](CP(=O)(O)O)O2)c(=O)[nH]c1=O` [Compound V, 3'-Fluoro-3',5'-dideoxythymidine-5'-phosphonic acid]: the IC50 in the data set with HIV-1(III B) (setting [2]) is 11.8 µg/mL (≈ 38.3 µM); in the data set with MT4 cell (setting [3]), 98.7 µg/mL (≈ 320 µM). In addition, the “water solubility, in words” value in data set [1] is “higher than that of AZT”. For the same compound, the “solubility in H2 O” value in data set [1] (setting [4]) stood at 12260 µg/mL (≈ 39800 µM).
Taken in the same sequence, the figures for `COC(=O)[C@@H](C)NP(=O)(C[C@H]1O[C@@H](n2cc(C)c(=O)[nH]c2=O)C[C@@H]1N=[N+]=[N-])O[C@H]1C[C@H](n2cc(C)c(=O)[nH]c2=O)O[C@@H]1CO` (stereo partly drawn) [Compound XII, (2R,4S,5R)-1-[4-Azidotetrahydro-5-[[(3'-O-thymidinyl)(methoxy-D-alaninyl)-phosphinylidene]methyl]-2-furyl]thymine] were 0.76 µg/mL (≈ 1.19 µM), 458 µg/mL (≈ 714 µM), “higher than that of AZT” and 9200 µg/mL (≈ 14400 µM).
Take `COC(=O)[C@H](C)NP(=O)(C[C@H]1O[C@@H](n2cc(C)c(=O)[nH]c2=O)C[C@@H]1F)O[C@H]1C[C@H](n2cc(C)c(=O)[nH]c2=O)O[C@@H]1CO` (stereo partly drawn) [Compound IX, (2R,4S,5R)-1-[4-Fluorotetrahydro-5-[[(3'-O-thymidinyl)(methoxy-L-alaninyl)-phosphinylidene]methyl]-2-furyl]thymine]: the results for the IC50 in the data set on HIV-1(III B) (setting [2]) and with MT4 cell (setting [3]) were 0.34 µg/mL (≈ 0.551 µM) and 180 µg/mL (≈ 292 µM), respectively. For the same compound, in data set [1] (setting [4]), the “solubility in H2 O” value was 8790 µg/mL (≈ 14200 µM).
On to `Cc1cn([C@H]2C[C@H](N=[N+]=[N-])[C@@H](CO)O2)c(=O)[nH]c1=O` [AZT, 3'-Azido-3'-deoxythymidine, reference compound], for which the IC50 turned out to be 0.02 µg/mL (≈ 0.0748 µM) in the data set on HIV-1(III B) (Human immunodeficiency virus 1, MT4, read-out: IC50 HIV-1(III B)) and 57.3 µg/mL (≈ 214 µM) in the data set on MT4 cell (MT4, read-out: IC50 MT4 cell (concentration required to reduce the number of viable uninfected cells by 50%)).
The term solubility denotes the dissolved amount per volume that the medium holds. On to `Cc1cn([C@H]2C[C@H](N=[N+]=[N-])[C@@H](CP(=O)(O)O)O2)c(=O)[nH]c1=O` [Compound VI, 3'-Azido-3',5'-dideoxythymidine-5'-phosphonic Acid], for which the results for the IC50 in the data set on HIV-1(III B) (setting [2]) and in the data set with MT4 cell (setting [3]) were 7.68 µg/mL (≈ 23.2 µM) and 115 µg/mL (≈ 346 µM), respectively. Further, the solubility at 20 h in data set [1] (0.10 m phosphate buffer, aqueous buffer, phosphate buffer (0.10M), agitated 20 h, read-out: solubility in H2 O) was determined as 11100 µg/mL (≈ 33600 µM).
For the compound `Cc1cn([C@H]2CC[C@@H](CP(=O)(O)O)O2)c(=O)[nH]c1=O` [III, 3',5'-Dideoxythymidine-5'-phosphonic acid], the IC50 stood at 23.5 µg/mL (≈ 81 µM) in the data set with HIV-1(III B) (setting [2]) and 128 µg/mL (≈ 443 µM) with MT4 cell (setting [3]).
